Key:
[1] = target: T1, human type II inosine-5′-monophosphate dehydrogenase (IMPDH II) (Homo sapiens, UniProt P12268); experiment: recombinant enzyme assay, NADH formation at […] nm, […] IMP and […] NAD; type: biochemical
T1 construct: gene IMPDH2; human recombinant IMPDH II

[2] = target: T1, human type II inosine-5′-monophosphate dehydrogenase (IMPDH II); experiment: recombinant enzyme assay, NADH formation at […] nm; positive control; type: biochemical

T1 sequence (P12268 2-514): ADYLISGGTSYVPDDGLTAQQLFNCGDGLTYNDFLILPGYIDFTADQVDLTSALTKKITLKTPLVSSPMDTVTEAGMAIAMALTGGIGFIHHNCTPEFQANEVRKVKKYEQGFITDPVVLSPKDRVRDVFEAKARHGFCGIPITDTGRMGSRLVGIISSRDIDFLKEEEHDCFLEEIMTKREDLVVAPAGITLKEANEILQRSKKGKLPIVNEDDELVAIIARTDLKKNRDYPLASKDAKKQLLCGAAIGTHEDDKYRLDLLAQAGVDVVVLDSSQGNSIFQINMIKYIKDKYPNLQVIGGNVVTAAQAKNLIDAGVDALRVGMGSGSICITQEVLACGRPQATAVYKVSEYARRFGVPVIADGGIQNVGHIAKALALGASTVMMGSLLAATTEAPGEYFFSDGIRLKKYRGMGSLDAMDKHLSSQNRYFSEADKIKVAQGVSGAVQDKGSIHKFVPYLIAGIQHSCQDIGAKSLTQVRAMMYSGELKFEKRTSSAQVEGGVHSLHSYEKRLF

Question: Which Ki [1] does the source give for O=c1[nH]cnc2c1ncn2C1CC(OCP(=O)(O)O)C(O)C1O (stereo not drawn) [compound 2, 9-(4’-phosphonomethoxy-2’,3’-dihydroxycyclopent-1’-yl)hypoxanthine] here?
Answer: 975 µM

Question: How did the Ki [1] turn out when O=c1[nH]cnc2c1ncn2C1C=CC(OCP(=O)(O)O)C1 (stereo not drawn) [compound 1, 9-(4’-Phosphonomethoxy-2’-cyclopenten-1’-yl)hypoxanthine] was run?
Answer: 474 µM

Question: For NC(=O)c1ncn([C@@H]2O[C@H](COP(=O)(O)O)[C@@H](O)[C@H]2O)n1 [Ribavirin monophosphate], which IC50 [2] is on record?
Answer: 2 µM

From publication PMC3549521, “Carbocyclic Analogues of Inosine-5’-Monophosphate: Synthesis and Biological Activity” (Acta Naturae, 2012)
